Test: Nasogastric Tube Compatibility Study, impurities (HPLC)
Type: physicochemical
Procedure: Analytical HPLC Compatibility Study experiments (Example 2) were performed on Agilent 1200 Series, or equivalent; Waters XBridge C18 column, 5 μm 150×4.6 mm; mobile phase: Solvent A: 50 mM ammonium bicarbonate, pH 8.0; Solvent B: acetonitrile/methanol, 80:20 (v/v); Flow rate: 1 mL/min; Inj. Volume 60 μL; Autosampler Temp.: 5° C.; column temperature: 40° C.; the pooled limit of quantitation was 0.05% of 0.68 mg/mL; detection UV at 210 nm; sample concentration (as free base) assay: 0.034 mg/mL, impurity: 0.34 mg/mL; standard concentration (as free base) 0.034 mg/mL; PLOQ Std. 0.05% of 0.34 mg/mL; SST solution, 1% of 0.34 mg/mL (Impurities A, C, D, E, F, and G); diluent for standards 0.1N HCl; diluent for samples 0.1N HCl; run time, 40 min; gradient method: 0 min mobile phase A (90%) and mobile phase B (10%) to 30 min mobile phase A (0%), and mobile phase B (100%); then 30.1 min to 40 min mobile phase A (90%), mobile phase B (10%).
Three samples of pimavanserin in water (n=3) were prepared as follows. The content of one capsule was dropped into a 100 mL bottle, and the empty capsule shell was discarded. Approximately 40 mL of water was added into the bottle, and the bottle was swirled until the contents were disintegrated. Syringes were secured approximately 1 meter above the benchtop, and the plungers were removed. The Hydromer coating on the weighted top of the NG tube was activated by submerging the weight assembly in water for 10 seconds. The NG tube was flushed with 20 mL of water, and remaining water in the syringe and the NG tube was expelled with the help of the syringe plunger. The weighted tip of the NG tube was placed into 100 mL volumetric flasks on the benchtop.
For each sample, the aqueous dispersion was slowly poured into the syringe, allowing it to drain through the NG tube under gravity into the 100 mL collection volumetric flask. The original bottle containing the aqueous suspension of pimavanserin capsules was rinsed twice with 15 mL of water into the same syringe/NG tube system. The dispersion remaining in the syringe and NG tube was expelled with the help of the syringe plunger. Each flask was diluted to volume with 0.33N HCl (to make a final 0.1 N HCl concentration in the flask). The samples were sonicated for 15 minutes with intermediate shaking. A stir bar was added to the flask and the solution was stirred for 2 hours. An aliquot of each solution was centrifuged for 5 minutes at 10000 rom. The supernatant was transferred to a HPLC vial and injected for impurity analysis.
A “control” sample was prepared following the sample preparation procedure described above except it was not passed through a syringe/NG system. The content of one capsule was dropped into a 100 mL volumetric flask, and the empty capsule shell was discarded. Next 70 mL of water was added into the flask and swirled until the contents were completely disintegrated. The flask was diluted to volume with 0.33 N HCl (to make final 0.1N HCl concentration). The sample was sonicated for 15 minutes with intermediate shaking. A stir bar was dropped into the flask, and the solution was stirred for 2 hours. An aliquot was taken and centrifuged for 5 minutes at 10000 rpm. The supernatant was transferred to a HPLC vial and injected for impurity analysis.

## CC(C)COc1ccc(CNC(=O)N(Cc2ccc(F)cc2)C2CCN(C)CC2)cc1 [Pimavanserin, N-(4-Fluorophenylmethyl)-N-(1-methylpiperidin-4-yl)-N′-(4-(2-methylpropyloxy)phenylmethyl)carbamide]
NG Tube Control
  Imp-D: 0.13 % w/w
  Impurity RRT-0.36: 0.05 % w/w
  Impurity RRT-0.54: 0.07 % w/w
  Impurity RRT-0.96: 0.06 % w/w
  Impurity RRT-0.99: 0.07 % w/w
  Total degradation products and impurities: 0.38 % w/w
NG Tube Mean (n = 3)
  Imp-D: 0.13 % w/w
  Impurity RRT-0.36: 0.06 % w/w
  Impurity RRT-0.54: 0.07 % w/w
  Impurity RRT-0.85: 0.05 % w/w
  Impurity RRT-0.96: 0.06 % w/w
  Impurity RRT-0.99: 0.06 % w/w
  Impurity RRT-1.11: 0.05 % w/w
  Total degradation products and impurities: 0.48 % w/w
NG Tube N = 1
  Imp-D: 0.13 % w/w
  Impurity RRT-0.36: 0.05 % w/w
  Impurity RRT-0.54: 0.07 % w/w
  Impurity RRT-0.85: 0.05 % w/w
  Impurity RRT-0.96: 0.05 % w/w
  Impurity RRT-0.99: 0.07 % w/w
  Total degradation products and impurities: 0.42 % w/w
NG Tube N = 2
  Imp-D: 0.14 % w/w
  Impurity RRT-0.36: 0.06 % w/w
  Impurity RRT-0.54: 0.07 % w/w
  Impurity RRT-0.96: 0.06 % w/w
  Impurity RRT-0.99: 0.07 % w/w
  Impurity RRT-1.11: 0.05 % w/w
  Total degradation products and impurities: 0.45 % w/w
NG Tube N = 3
  Imp-D: 0.13 % w/w
  Impurity RRT-0.99: 0.05 % w/w
  Total degradation products and impurities: 0.18 % w/w
NG tube
  impurity profile of compatibility samples versus control sample: matched
Stability or recovery portions of the studies
  unknown impurities: < 0.1%

Source: patent US20220323429A1, “PIMAVANSERIN FOR TREATING NEURODEGENERATIVE DISEASES” (ACADIA Pharmaceuticals Inc., priority 2019, published 2022)
